Test results published in patent US9073875B2, “Compounds useful as inhibitors of indoleamine 2,3-dioxygenase” (Vertex Pharmaceuticals Incorporated, priority 2012, dated 2015).

The compounds below were run against T1, IDO1 (Homo sapiens, UniProt P14902) (assay: Cellular IDO1 Inhibition Assay (L-kynurenine production by IFN-γ-stimulated HeLa cells)). Conditions: IDO1 induced by IFN-γ, 250 μM L-tryptophan, 48 hours, L-kynurenine by Ehrlich's reagent, maximal concentration 40 μM.
T1 construct: HeLa cells in which IDO1 expression is induced by IFN-γ; endogenous in cells; host or cells: HeLa cells stimulated with human recombinant IFN-γ
T1 sequence (P14902 whole entry): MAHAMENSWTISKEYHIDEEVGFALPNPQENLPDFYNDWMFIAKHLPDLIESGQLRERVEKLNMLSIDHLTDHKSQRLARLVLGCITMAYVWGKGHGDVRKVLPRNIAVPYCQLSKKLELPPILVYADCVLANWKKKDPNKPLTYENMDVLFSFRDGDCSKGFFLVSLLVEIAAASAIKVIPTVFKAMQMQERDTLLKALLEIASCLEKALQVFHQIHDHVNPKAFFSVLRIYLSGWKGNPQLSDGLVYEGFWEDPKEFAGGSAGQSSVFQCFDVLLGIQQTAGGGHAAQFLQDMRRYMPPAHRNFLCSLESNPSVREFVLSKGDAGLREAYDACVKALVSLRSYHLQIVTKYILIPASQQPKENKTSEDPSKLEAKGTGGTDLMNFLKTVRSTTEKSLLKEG
Assay type: cell-based
Procedure: Compounds can be screened for their ability to inhibit intracellular IDO1 activity, by measuring the production of L-kynurenine by HeLa cells in which IDO1 expression is induced by IFN-γ. Kynurenine levels can be determined by chemical conversion of L-kynurenine with Ehrlich's reagent (Yue et. al., J Med Chem 2009 Dec. 10; 52(23):7364-7).
HeLa cells were plated at 20,000 cells per well in 96-well culture plates (Costar 3598) in DMEM (Sigma D5671) supplemented with 10% fetal bovine serum (SAFC Biosciences 12003C), Penicillin/Streptomycin solution diluted 1:100 (Sigma P7539), 4 mM L-glutamine (Sigma G7513), 1% Non Essential Aminoacids (Sigma M7145) and 1 mM Sodium Pyruvate (Sigma S8636). Cells were allowed to adhere for 24 hours at 37° C. in 5% CO2. Subsequently compounds were first serially diluted 1/3 in DMSO then further diluted in media and finally added to the cells, giving a maximal final concentration of 40 μM. Additional medium containing L-tryptophan to a final concentration of 250 μM (Sigma T0254) and human recombinant IFN-γ (R&D Systems 285-IF) were added to the wells to stimulate IDO1 production. Cells were incubated at 37° C. in 5% CO2 for 48 hours.
For the measurement of L-kynurenine in HeLa supernatants, plates were centrifuged at 1000 RPM for 5 minutes and 140 μl of media transferred into a polypropylene 96 well plate (Costar 3879) containing 10 μl of 26% Trichloroacetic Acid in water (Sigma T9159). Plates were then sealed using a plate sealer (PlateLoc, Agilent Technology) and incubated at 50° C. for 30 minutes. Plates were centrifuged at 2400 RPM for 10 minutes and 100 μl of media transferred to polystyrene 96-well plates together with 100 μl of Ehrlich's reagent (2% p-Dimethylaminobenzaldehyde, (Sigma D2004) in acetic acid (Fisher, A/400/PB17)). Following the addition of Ehrlich's reagent the absorbance at 490 nm was read using a spectrophotometer (Spectramax Plus, Molecular Devices). Kynurenine levels were plotted against compound concentrations to generate dose response curves and obtain […] values for each active compound using Genedata Screener® Software.
Cellular […] values for each compound may be found in Table 2, below, wherein A=<0.1 μM; B=0.1 μM-1 μM; and C=1 μM-40 μM.

| IC50 [nM] | SMILES |
| --- | --- |
| 100 to 1000 | Clc1ccc(Nc2cnn[nH]2)c(CCN2CCOCC2)c1 [Compound I-46] |
| 1000 to 40000 | Clc1ccc(Nc2cnn[nH]2)cn1 [Compound I-22, 6-chloro-N-(2H-1,2,3-triazol-4-yl)pyridin-3-amine] |
| 100 to 1000 | Fc1cc(Nc2c[nH]nn2)ccc1Cl [Compound I-14] |
| 100 to 1000 | Fc1ccc(Nc2cnn[nH]2)cc1Cl [Compound I-13, N-(3-chloro-4-fluorophenyl)-2H-1,2,3-triazol-4-amine] |
| 100 to 1000 | Fc1cccc(Nc2cnn[nH]2)c1 [Compound I-45, N-(3-fluorophenyl)-2H-1,2,3-triazol-4-amine] |
| < 100 | Brc1ccc(Nc2c[nH]nn2)cc1 [Compound I-3] |
| 100 to 1000 | CCc1cc(Nc2cnn[nH]2)ccc1Cl [Compound I-7] |
| 1000 to 40000 | CS(=O)(=O)NCc1cc(Cl)ccc1Nc1cnn[nH]1 [Compound I-21] |
| 100 to 1000 | N#Cc1cc(Nc2cn[nH]n2)ccc1Cl [Compound I-44, 5-((2H-1,2,3-triazol-4-yl)amino)-2-chlorobenzonitrile] |
| 100 to 1000 | Clc1ccc(Nc2cnn[nH]2)c(CCCN2CCOCC2)c1 [Compound I-47] |
| 100 to 1000 | Cc1cc(Nc2cnn[nH]2)ccc1Cl [Compound I-38] |
| 1000 to 40000 | CC(C)C(Cc1cc(Cl)ccc1Nc1cn[nH]n1)C(=O)O (centres unmarked) [Compound I-32] |
| < 100 | Cc1cc(F)ccc1Nc1c[nH]nn1 [Compound I-36, N-(4-fluoro-2-methylphenyl)-2H-1,2,3-triazol-4-amine] |
| < 100 | C=Cc1cc(Cl)ccc1Nc1cnn[nH]1 [Compound I-40] |
| 100 to 1000 | Cc1c(Cl)cccc1Nc1cnn[nH]1 [Compound I-39] |
| 1000 to 40000 | CC(C)(Cc1cc(Cl)ccc1Nc1cn[nH]n1)C(=O)O [Compound I-33, 3-(2-((2H-1,2,3-triazol-4-yl)amino)-5-chlorophenyl)-2,2-dimethylpropanoic acid] |
| 1000 to 40000 | Clc1ccc(Nc2cn[nH]n2)c(I)c1 [Compound I-25] |
| 1000 to 40000 | NCc1cc(Cl)ccc1Nc1cnn[nH]1 [Compound I-34, N-(2-(aminomethyl)-4-chlorophenyl)-2H-1,2,3-triazol-4-amine] |
| 1000 to 40000 | Clc1ccccc1Nc1cnn[nH]1 [Compound I-29] |
| 100 to 1000 | Clc1cc(Cl)cc(Nc2cn[nH]n2)c1 [Compound I-16] |
| < 100 | Clc1ccc(Nc2cn[nH]n2)cc1 [Compound I-2] |
| < 100 | CCc1cc(Cl)ccc1Nc1cnn[nH]1 [Compound I-1] |
| < 100 | COCc1cc(Cl)ccc1Nc1cnn[nH]1 [Compound I-4] |
| 100 to 1000 | OCc1cc(Cl)ccc1Nc1cnn[nH]1 [Compound I-9, (2-((2H-1,2,3-triazol-4-yl)amino)-5-chlorophenyl)methanol] |

| IC50 [nM] | SMILES |
| --- | --- |
| 1000 to 40000 | O=C(O)CCc1cc(Cl)ccc1Nc1cn[nH]n1 [Compound I-31] |
| 100 to 1000 | CN1CCN(CCOc2cc(Cl)ccc2Nc2cnn[nH]2)CC1 [Compound I-48] |
| < 100 | Cc1cc(Cl)ccc1Nc1c[nH]nn1 [Compound I-5] |
| 100 to 1000 | Clc1ccc(Nc2cnn[nH]2)cc1Cl [Compound I-19] |
| 100 to 1000 | Clc1ccc(Nc2c[nH]nn2)c(OCCN2CCOCC2)c1 [Compound I-10] |
| 1000 to 40000 | O=C(O)C1CC(Cc2cc(Cl)ccc2Nc2cn[nH]n2)C1 (centres unmarked) [Compound I-28, 3-(2-((2H-1,2,3-triazol-4-yl)amino)-5-chlorobenzyl)cyclobutanecarboxylic acid] |
| 100 to 1000 | Fc1ccc(Nc2cnn[nH]2)cc1Br [Compound I-18] |
| < 100 | COCCc1cc(Cl)ccc1Nc1cn[nH]n1 [Compound I-6] |
| 100 to 1000 | Cc1cc(Cl)cc(Nc2cnn[nH]2)c1 [Compound I-41] |
| 100 to 1000 | Cc1cc(Cl)cc(C)c1Nc1cnn[nH]1 [Compound I-15] |
| 100 to 1000 | CC(=O)NCc1cc(Cl)ccc1Nc1cnn[nH]1 [Compound I-20, N-(2-((2H-1,2,3-triazol-4-yl)amino)-5-chlorobenzyl)acetamide] |
| 100 to 1000 | CN(C)S(=O)(=O)CCc1cc(Cl)ccc1Nc1cnn[nH]1 [Compound I-43] |
| 100 to 1000 | Brc1cccc(Nc2cn[nH]n2)c1 [Compound I-37] |
| 1000 to 40000 | CC(C)(C)C(Cc1cc(Cl)ccc1Nc1cn[nH]n1)C(=O)O (centres unmarked) [Compound I-35] |
| 100 to 1000 | COc1cc(Cl)ccc1Nc1cn[nH]n1 [Compound I-12] |
| 1000 to 40000 | Fc1cc(Cl)ccc1Nc1cnn[nH]1 [Compound I-30] |
| 100 to 1000 | CNS(=O)(=O)CCc1cc(Cl)ccc1Nc1cnn[nH]1 [Compound I-17] |
| < 100 | Cc1ccc(Cl)cc1Nc1cnn[nH]1 [Compound I-42] |
| 1000 to 40000 | Clc1ccc(Nc2cnn[nH]2)c(Cl)c1 [Compound I-27] |
| 100 to 1000 | Fc1ccc(Nc2cnn[nH]2)cc1 [Compound I-24] |
| 100 to 1000 | Clc1cccc(Nc2cnn[nH]2)c1 [Compound I-11] |
| 1000 to 40000 | CN(Cc1cc(Cl)ccc1Nc1c[nH]nn1)C(=O)OC(C)(C)C [Compound I-23] |
| 100 to 1000 | COc1cc(Nc2cn[nH]n2)ccc1Cl [Compound I-8] |
